Measurements from patent US20140357713A1, “ANTIMICROBIAL COMPOUNDS AND METHODS OF USE” (NexMed Holdings, Inc., priority 2012, published 2014).
Counter-ions that a name gives are not always drawn. Like-named read-outs stand apart in the source and are kept apart here.

Key:
Assay in all cases: MIC assay with different strains, Example 35
Type in all cases: cell-based
[1] = test system: Burkholderia cepacia (ATCC 25416)
Procedure: (§1) The minimum inhibitory concentration (MIC) is used to determine the lowest concentration of a test product claiming antimicrobial effects that will inhibit growth of a microorganism. Each microbial suspension was adjusted approximately 10^7 to 10^8 colony forming units (CFU) per mL and labeled as the stock suspension. The stock suspension was further diluted to 1:200 in Mueller Hinton broth to obtain a test sample having a concentration of […]. The test sample was then tested for MIC as described in M202.R02. After incubation, each tube was examined for turbidity, which indicated growth or no growth. For the tubes where the product rendered the media turbid, an aliquot of the media was streaked onto agar plates to confirm growth or lack of growth.

[2] = test system: Klebsiella oxytoca (ATCC 43165)
Procedure: as §1

[3] = test system: Streptococcus pyogenes (ATCC 19615)
Procedure: as §1

[4] = test system: Micrococcus luteus (ATCC 4698)
Procedure: as §1

[5] = test system: Enterococcus faecalis (ATCC 19433)
Procedure: as §1

[6] = test system: Enterococcus faecium (ATCC 19434)
Procedure: as §1

For `CCCCCCCCCCCCOC(=O)C(C)N(C)C` (stereo not shown) [Nex-05, Dodecyl 2-(dimethylamino)propanoate hydrochloride], the MIC ([1]; Example 35) was 2.5%, the Growth/no growth ([1]; Sample Concentration 0.039%) was “Growth” and the Growth/no growth ([1]; Sample Concentration 0.078%) was “Growth”. For the same molecule, the Growth/no growth ([1]; Sample Concentration 0.156%) was “Growth”, the Growth/no growth ([1]; Sample Concentration 0.313%) was “Growth” and the Growth/no growth ([1]; Sample Concentration 0.625%) was “Growth”. For the same molecule, the Growth/no growth ([1]; Sample Concentration 1.25%) was “Growth”, the MIC ([2]; Example 35) was 1.25% and the Growth/no growth ([2]; Sample Concentration 0.039%) was “Growth”. For the same molecule, the Growth/no growth ([2]; Sample Concentration 0.078%) was “Growth”, the Growth/no growth ([2]; Sample Concentration 0.156%) was “Growth” and the Growth/no growth ([2]; Sample Concentration 0.313%) was “Growth”. The Growth/no growth ([2]; Sample Concentration 0.625%) was “Growth”, the MIC ([3]; Example 35) was 0.313% and the Growth/no growth ([3]; Sample Concentration 0.039%) was “Growth”. The Growth/no growth ([3]; Sample Concentration 0.078%) was “Growth”, the Growth/no growth ([3]; Sample Concentration 0.156%) was “Growth” and the MIC ([4]; Example 35) was 0.313%. The Growth/no growth ([4]; Sample Concentration 0.039%) was “Growth”, the Growth/no growth ([4]; Sample Concentration 0.078%) was “Growth” and the Growth/no growth ([4]; Sample Concentration 0.156%) was “Growth”. The MIC ([5]; Example 35) was 1.25%, the Growth/no growth ([5]; Sample Concentration 0.039%) was “Growth” and the Growth/no growth ([5]; Sample Concentration 0.078%) was “Growth”. The Growth/no growth ([5]; Sample Concentration 0.156%) was “Growth”, the Growth/no growth ([5]; Sample Concentration 0.313%) was “Growth” and the Growth/no growth ([5]; Sample Concentration 0.625%) was “Growth”.

With `CCCCCCCCCCCCOC(=O)C(C)NC.Cl` (stereo not shown) [Nex-59, Dodecyl 2-(methylamino)propanoate hydrochloride] the MIC ([1]; Burkholderia cepacia, ATCC25416, Table 19 summary, read-out: MIC) was 25000 µg/mL, the MIC ([1]; Example 35) was 2.5% and the Growth/no growth ([1]; Sample Concentration 0.01%) was “Growth”. The Growth/no growth ([1]; Sample Concentration 0.02%) was “Growth”, the Growth/no growth ([1]; Sample Concentration 0.04%) was “Growth” and the Growth/no growth ([1]; Sample Concentration 0.08%) was “Growth”. The Growth/no growth ([1]; Sample Concentration 0.16%) was “Growth”, the Growth/no growth ([1]; Sample Concentration 0.32%) was “Growth” and the Growth/no growth ([1]; Sample Concentration 0.63%) was “Growth”. The Growth/no growth ([1]; Sample Concentration 1.25%) was “Growth”, the MIC ([6]; Enterococcus faecium, ATCC19434, Table 19 summary, read-out: MIC) was 400 µg/mL and the MIC ([6]; Example 35) was 0.04%. The Growth/no growth ([6]; Sample Concentration 0.01%) was “Growth”, the Growth/no growth ([6]; Sample Concentration 0.02%) was “Growth” and the MIC ([2]; Example 35) was 0.63%. The MIC ([2]; Klebsiella oxytoca, ATCC 43165 / ATCC 43615, Table 19 summary, strain printed ATCC 43615, read-out: MIC) was 6300 µg/mL, the Growth/no growth ([2]; Sample Concentration 0.01%) was “Growth” and the Growth/no growth ([2]; Sample Concentration 0.02%) was “Growth”. The Growth/no growth ([2]; Sample Concentration 0.04%) was “Growth”, the Growth/no growth ([2]; Sample Concentration 0.08%) was “Growth” and the Growth/no growth ([2]; Sample Concentration 0.16%) was “Growth”. The Growth/no growth ([2]; Sample Concentration 0.32%) was “Growth”, the Growth/no growth ([2]; Sample Concentration 0.63%) was “No” and the Growth/no growth ([2]; Sample Concentration 1.25%) was “No”. For the same molecule, the Growth/no growth ([2]; Sample Concentration 2.5%) was “No”, the MIC ([3]; Example 35) was “≦0.01%” and the Growth/no growth ([3]; Sample Concentration 0.01%) was “No”. For the same molecule, the Growth/no growth ([3]; Sample Concentration 0.02%) was “No”, the Growth/no growth ([3]; Sample Concentration 0.04%) was “No” and the Growth/no growth ([3]; Sample Concentration 0.08%) was “No”. For the same molecule, the Growth/no growth ([3]; Sample Concentration 0.16%) was “No”, the Growth/no growth ([3]; Sample Concentration 0.32%) was “No” and the Growth/no growth ([3]; Sample Concentration 0.63%) was “No”. For the same molecule, the Growth/no growth ([3]; Sample Concentration 1.25%) was “No”, the Growth/no growth ([3]; Sample Concentration 2.5%) was “No” and the MIC ([3]; Streptococcus pyogenes, ATCC19615, Table 19 summary, read-out: MIC) was 100 µg/mL. For the same molecule, the MIC ([4]; Example 35) was 0.02%, the MIC ([4]; Micrococcus luteus, ATCC4698, Table 19 summary, read-out: MIC) was 200 µg/mL and the Growth/no growth ([4]; Sample Concentration 0.01%) was “Growth”. The Growth/no growth ([4]; Sample Concentration 0.02%) was “No”, the Growth/no growth ([4]; Sample Concentration 0.04%) was “No” and the Growth/no growth ([4]; Sample Concentration 0.08%) was “No”. The Growth/no growth ([4]; Sample Concentration 0.16%) was “No”, the Growth/no growth ([4]; Sample Concentration 0.32%) was “No” and the Growth/no growth ([4]; Sample Concentration 0.63%) was “No”. For the same molecule, the Growth/no growth ([4]; Sample Concentration 1.25%) was “No”, the Growth/no growth ([4]; Sample Concentration 2.5%) was “No” and the MIC ([5]; Enterococcus faecalis, ATCC19433, Table 19 summary, read-out: MIC) was at least 100 µg/mL. For the same molecule, the MIC ([5]; Example 35) was “≦0.01%”, the Growth/no growth ([5]; Sample Concentration 0.01%) was “No” and the Growth/no growth ([5]; Sample Concentration 0.02%) was “No”. The Growth/no growth ([5]; Sample Concentration 0.04%) was “No”, the Growth/no growth ([5]; Sample Concentration 0.08%) was “No” and the Growth/no growth ([5]; Sample Concentration 0.16%) was “No”. For the same molecule, the Growth/no growth ([5]; Sample Concentration 0.32%) was “No”, the Growth/no growth ([5]; Sample Concentration 0.63%) was “No” and the Growth/no growth ([5]; Sample Concentration 1.25%) was “No”. The Growth/no growth ([5]; Sample Concentration 2.5%) was “No”.
